Laboratory results taken from patent US20070049564A1 (Wyeth, priority 2005, published 2007).
In brackets after ≈: the same amount, converted by molar mass. Where two headings read alike, the source gives them in different places.

Tests used:
[1] = test system: E. coli GC 2235; test: MIC, broth microdilution; conditions: Escherichia coli
[2] = test system: E. coli GC 2272; test: MIC, broth microdilution; conditions: Escherichia coli
[3] = test system: E. coli GC 4559; test: MIC, broth microdilution; conditions: Escherichia coli
[4] = test system: E. coli GC 4560; test: MIC, broth microdilution; conditions: Escherichia coli
[5] = test system: E. coli GC 6465; test: MIC, broth microdilution; conditions: Escherichia coli
[6] = test system: E. coli GC 1073; test: MIC, broth microdilution; conditions: Escherichia coli
[7] = test system: S. typhimurium GC 2172; test: MIC, broth microdilution; conditions: Salmonella enterica, TYPHIMURIUM
[8] = test system: S. aureus GC 1131; test: MIC, broth microdilution; conditions: Staphylococcus aureus
[9] = test system: S. aureus GC 6467; test: MIC, broth microdilution; conditions: Staphylococcus aureus
[10] = test system: S. aureus GC 1079; test: MIC, broth microdilution; conditions: Staphylococcus aureus
[11] = test system: S. aureus GC 4536; test: MIC, broth microdilution; conditions: Staphylococcus aureus
[12] = test system: S. epidermidis GC 4935; test: MIC, broth microdilution; conditions: Staphylococcus epidermidis
[13] = test system: E. faecalis GC 4555; test: MIC, broth microdilution; conditions: Enterococcus faecalis
[14] = test system: E. faecalis GC 2267; test: MIC, broth microdilution; conditions: Enterococcus faecalis
[15] = test system: E. faecalis GC 2242; test: MIC, broth microdilution; conditions: Enterococcus faecalis
[16] = test system: S. pneumoniae* GC 4465; test: MIC, broth microdilution; conditions: Streptococcus pneumoniae
[17] = test system: S. pneumoniae+ GC 4465; test: MIC, broth microdilution; conditions: Streptococcus pneumoniae
[18] = test system: S. agalactiae GC 4564; test: MIC, broth microdilution; conditions: Streptococcus agalactiae
[19] = test system: c. albicans GC 3066; test: MIC, broth microdilution
[20] = test system: Staph. aureus Smith; test: In vivo activity (oral, iv; ED50) against Staph. aureus Smith in mice
[21] = read-out: MINIMAL INHIBITORY CONCENTRATION MIC, pre-incubated in Human Serum
[22] = read-out: MINIMAL INHIBITORY CONCENTRATION MIC, pre-incubated in Mouse Serum
[23] = read-out: MINIMAL INHIBITORY CONCENTRATION MIC, pre-incubated in Water

- MIC ([1]; GC2235, read-out: MINIMAL INHIBITORY CONCENTRATION MIC, pre-incubated in Human Serum): > 64 µg/mL
- MIC ([1]; GC2235, read-out: MINIMAL INHIBITORY CONCENTRATION MIC, pre-incubated in Mouse Serum): 0.25 µg/mL (≈ 0.305 µM)
- MIC ([1]; GC2235, read-out: MINIMAL INHIBITORY CONCENTRATION MIC, pre-incubated in Water): > 64 µg/mL
- MIC ([2]; GC2272, read-out: MINIMAL INHIBITORY CONCENTRATION MIC, pre-incubated in Human Serum): > 64 µg/mL
- MIC ([2]; GC2272, read-out: MINIMAL INHIBITORY CONCENTRATION MIC, pre-incubated in Mouse Serum): 0.5 µg/mL (≈ 0.61 µM)
- MIC ([2]; GC2272, read-out: MINIMAL INHIBITORY CONCENTRATION MIC, pre-incubated in Water): > 64 µg/mL
- MIC ([3]; GC4559, read-out: MINIMAL INHIBITORY CONCENTRATION MIC, pre-incubated in Human Serum): > 64 µg/mL
- MIC ([3]; GC4559, read-out: MINIMAL INHIBITORY CONCENTRATION MIC, pre-incubated in Mouse Serum): 0.5 µg/mL (≈ 0.61 µM)
- MIC ([3]; GC4559, read-out: MINIMAL INHIBITORY CONCENTRATION MIC, pre-incubated in Water): > 64 µg/mL
- MIC ([4]; GC4560, read-out: MINIMAL INHIBITORY CONCENTRATION MIC, pre-incubated in Human Serum): 16 µg/mL (≈ 19.5 µM)
- MIC ([4]; GC4560, read-out: MINIMAL INHIBITORY CONCENTRATION MIC, pre-incubated in Mouse Serum): < 0.06 µg/mL
- MIC ([4]; GC4560, read-out: MINIMAL INHIBITORY CONCENTRATION MIC, pre-incubated in Water): 32 µg/mL (≈ 39 µM)
- MIC ([5]; GC6465, read-out: MINIMAL INHIBITORY CONCENTRATION MIC, pre-incubated in Human Serum): > 64 µg/mL
- MIC ([5]; GC6465, read-out: MINIMAL INHIBITORY CONCENTRATION MIC, pre-incubated in Mouse Serum): 2 µg/mL (≈ 2.44 µM)
- MIC ([5]; GC6465, read-out: MINIMAL INHIBITORY CONCENTRATION MIC, pre-incubated in Water): > 64 µg/mL
- MIC ([6]; GC1073, read-out: MINIMAL INHIBITORY CONCENTRATION MIC, pre-incubated in Human Serum): > 64 µg/mL
- MIC ([6]; GC1073, read-out: MINIMAL INHIBITORY CONCENTRATION MIC, pre-incubated in Mouse Serum): 0.5 µg/mL (≈ 0.61 µM)
- MIC ([6]; GC1073, read-out: MINIMAL INHIBITORY CONCENTRATION MIC, pre-incubated in Water): > 64 µg/mL
- MIC [7, 21]: > 64 µg/mL
- MIC [7, 22]: 2 µg/mL (≈ 2.44 µM)
- MIC [7, 23]: > 64 µg/mL
- MIC ([8]; GC1131, read-out: MINIMAL INHIBITORY CONCENTRATION MIC, pre-incubated in Human Serum): 16 µg/mL (≈ 19.5 µM)
- MIC ([8]; GC1131, read-out: MINIMAL INHIBITORY CONCENTRATION MIC, pre-incubated in Mouse Serum): 1 µg/mL (≈ 1.22 µM)
- MIC ([8]; GC1131, read-out: MINIMAL INHIBITORY CONCENTRATION MIC, pre-incubated in Water): 64 µg/mL (≈ 78.1 µM)
- MIC ([9]; GC6467, read-out: MINIMAL INHIBITORY CONCENTRATION MIC, pre-incubated in Human Serum): 32 µg/mL (≈ 39 µM)
- MIC ([9]; GC6467, read-out: MINIMAL INHIBITORY CONCENTRATION MIC, pre-incubated in Mouse Serum): 0.5 µg/mL (≈ 0.61 µM)
- MIC ([9]; GC6467, read-out: MINIMAL INHIBITORY CONCENTRATION MIC, pre-incubated in Water): > 64 µg/mL
- MIC ([10]; GC1079, read-out: MINIMAL INHIBITORY CONCENTRATION MIC, pre-incubated in Human Serum): 32 µg/mL (≈ 39 µM)
- MIC ([10]; GC1079, read-out: MINIMAL INHIBITORY CONCENTRATION MIC, pre-incubated in Mouse Serum): 1 µg/mL (≈ 1.22 µM)
- MIC ([10]; GC1079, read-out: MINIMAL INHIBITORY CONCENTRATION MIC, pre-incubated in Water): 64 µg/mL (≈ 78.1 µM)
- MIC ([11]; GC4536, read-out: MINIMAL INHIBITORY CONCENTRATION MIC, pre-incubated in Human Serum): 16 µg/mL (≈ 19.5 µM)
- MIC ([11]; GC4536, read-out: MINIMAL INHIBITORY CONCENTRATION MIC, pre-incubated in Mouse Serum): 1 µg/mL (≈ 1.22 µM)
- MIC ([11]; GC4536, read-out: MINIMAL INHIBITORY CONCENTRATION MIC, pre-incubated in Water): 32 µg/mL (≈ 39 µM)
- MIC ([12]; GC4935, read-out: MINIMAL INHIBITORY CONCENTRATION MIC, pre-incubated in Human Serum): 4 µg/mL (≈ 4.88 µM)
- MIC ([12]; GC4935, read-out: MINIMAL INHIBITORY CONCENTRATION MIC, pre-incubated in Mouse Serum): 2 µg/mL (≈ 2.44 µM)
- MIC ([12]; GC4935, read-out: MINIMAL INHIBITORY CONCENTRATION MIC, pre-incubated in Water): 32 µg/mL (≈ 39 µM)
- MIC ([13]; GC4555, read-out: MINIMAL INHIBITORY CONCENTRATION MIC, pre-incubated in Human Serum): 8 µg/mL (≈ 9.76 µM)
- MIC ([13]; GC4555, read-out: MINIMAL INHIBITORY CONCENTRATION MIC, pre-incubated in Mouse Serum): 0.5 µg/mL (≈ 0.61 µM)
- MIC ([13]; GC4555, read-out: MINIMAL INHIBITORY CONCENTRATION MIC, pre-incubated in Water): 32 µg/mL (≈ 39 µM)
- MIC ([14]; GC2267, read-out: MINIMAL INHIBITORY CONCENTRATION MIC, pre-incubated in Human Serum): 4 µg/mL (≈ 4.88 µM)
- MIC ([14]; GC2267, read-out: MINIMAL INHIBITORY CONCENTRATION MIC, pre-incubated in Mouse Serum): 0.5 µg/mL (≈ 0.61 µM)
- MIC ([14]; GC2267, read-out: MINIMAL INHIBITORY CONCENTRATION MIC, pre-incubated in Water): 32 µg/mL (≈ 39 µM)
- MIC ([15]; GC2242, read-out: MINIMAL INHIBITORY CONCENTRATION MIC, pre-incubated in Human Serum): 4 µg/mL (≈ 4.88 µM)
- MIC ([15]; GC2242, read-out: MINIMAL INHIBITORY CONCENTRATION MIC, pre-incubated in Mouse Serum): 0.5 µg/mL (≈ 0.61 µM)
- MIC ([15]; GC2242, read-out: MINIMAL INHIBITORY CONCENTRATION MIC, pre-incubated in Water): 16 µg/mL (≈ 19.5 µM)
- MIC [16, 21]: 1 µg/mL (≈ 1.22 µM)
- MIC [16, 22]: < 0.06 µg/mL
- MIC [16, 23]: 0.5 µg/mL (≈ 0.61 µM)
- MIC [17, 21]: 2 µg/mL (≈ 2.44 µM)
- MIC [17, 22]: 2 µg/mL (≈ 2.44 µM)
- MIC [17, 23]: 2 µg/mL (≈ 2.44 µM)
- MIC ([18]; GC4564, read-out: MINIMAL INHIBITORY CONCENTRATION MIC, pre-incubated in Human Serum): 2 µg/mL (≈ 2.44 µM)
- MIC ([18]; GC4564, read-out: MINIMAL INHIBITORY CONCENTRATION MIC, pre-incubated in Mouse Serum): < 0.06 µg/mL
- MIC ([18]; GC4564, read-out: MINIMAL INHIBITORY CONCENTRATION MIC, pre-incubated in Water): 2 µg/mL (≈ 2.44 µM)
- MIC ([19]; Candida albicans, GC3066, read-out: MINIMAL INHIBITORY CONCENTRATION MIC): > 64 µg/mL
- MINIMAL INHIBITORY CONCENTRATION MIC ([19]; pre-incubated in Human Serum): >64 UG/ML
- MINIMAL INHIBITORY CONCENTRATION MIC ([19]; pre-incubated in Mouse Serum): >64 UG/ML
Structure (SMILES): CN(C)c1cc(NC(=O)CN(C(=O)OCOC(=O)c2ccc(C(C)(C)C)cc2)C(C)(C)C)c(O)c2c1C[C@H]1C[C@H]3[C@H](N(C)C)C(O)=C(C(N)=O)C(=O)[C@@]3(O)C(O)=C1C2=O [Example 43, ({[(2-{[(5aR,6aS,7S,10aS)-9-(aminocarbonyl)-4,7-bis(dimethylamino)-1,8,10a,11-tetrahydroxy-10,12-dioxo-5,5a,6,6a,7,10,10a,12-octahydrotetracen-2-yl]amino}-2-oxoethyl)(tert-butyl)amino]carbonyl}oxy)methyl 4-tert-butylbenzoate]
- ED50 ([20]; Staphylococcus aureus, in Mus musculus, po, read-out: ED50 Staph Smith SOD): 12.8 mg/kg
- ED50 ([20]; iv, read-out: ED50 Staph Smith SIV): 0.83 mg/kg
